Reference: patent US12171229B2, “Heteroaryl-triazole and heteroaryl-tetrazole compounds as pesticides” (BAYER AKTIENGESELLSCHAFT, priority 2018, dated 2024)

Tests used:
Assay type in all cases: in vivo
Nezara viridula = Nezara viridula spray test; settings: 96 h, after 4 days, larvae on barley plants
Outline: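 Barley plants infested with Nezara viridula larvae were sprayed with compound diluted in water containing 1000 ppm emulsifier. Percent mortality was scored 4 days later, where 100% means all bugs killed and 0% none.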

Diabrotica balteata = Diabrotica balteata spray test; settings: Diabrotica balteata, in Triticum aestivum, 168 h, after 7 days, larvae on wheat seeds, read-out: efficacy (seedlings grown up); for pest or weed control at 80 µg/disc, 250 g/ha: 80 μg/well (=250 g/ha); for pest or weed control at 160 µg/disc, 500 g/ha: 160 μg/well (=500 g/ha)
Outline: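 Germinated wheat seeds (5 per well, 1 day on agar) sprayed with compound diluted in water containing 1000 ppm emulsifier, then infested with 10–20 D. balteata larvae. Efficacy scored after 7 days: 100% = seedlings like untreated uninfested control, 0% = no seedlings grown.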

Ctenocephalides felis [1] = experiment: Ctenocephalides felis in-vitro contact test, adult cat flea; settings: 5 μg/cm^2 (=500 g/ha), after 48 hours, adult cat fleas, read-out: efficacy (fleas dead or moribund)
Description: Ctenocephalides Felis—In-Vitro Contact Tests Adult Cat Flea 9 mg compound is solved in 1 ml acetone and diluted with acetone to the desired concentration. 250 μl of the test solution is filled in 25 ml glass test tubes and homogeneously distributed on the inner walls by rotation and tilting on a shaking device (2 h at 30 rpm). With a compound concentration of 900 ppm, an inner surface of 44.7 cm^2 and a homogeneous distribution, a dose of 5 μg/cm^2 is achieved. After the solvent has evaporated, each test tube is filled with 5-10 adult cat fleas (Ctenocephalides felis), closed with a perforated lid and incubated in a lying position at room temperature and relative humidity. After 48 hours efficacy is determined. The fleas are patted on the ground of the tubes and are incubated on a heating plate at 45-50° C. for at most 5 minutes. Immotile or uncoordinated moving fleas, which are not able to escape the heat by climbing upwards, are marked as dead or moribund. […] An efficacy of 100% means all fleas are dead or moribund; 0% means no fleas are dead or moribund.

Spodoptera frugiperda = Spodoptera frugiperda spray test; settings: 168 h, after 7 days, larvae on maize leaf sections
Outline: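 Caterpillars are placed on sprayed, dried maize leaf sections. Sprays contain compound diluted in water with emulsifier at 1000 ppm; mortality in % is determined 7 days later.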

Myzus persicae [2] = experiment: Myzus persicae oral test; settings: 120 h, 4 ppm, after 5 days
Description: Solvent: 100 parts by weight acetone
To produce a suitable preparation of active compound, 1 part by weight of active compound is mixed with the stated amount of solvent, and the concentrate is diluted with water to the desired concentration.
50 μl compound solution is filled in microtiter plates and 150 μl IPL41 insect medium (33%+15% sugar) is added to obtain a total volume of 200 μl per well. Afterwards the plates are sealed with parafilm through which a mixed population of the green peach aphid (Myzus persicae) can suck on the compound preparation.
(§1) After 5 days mortality in % is determined. 100% means all aphids have been killed and 0% means none of the aphids have been killed.

Ctenocephalides felis [3] = experiment: Ctenocephalides felis oral test; settings: 48 h, 100 ppm in cattle blood, after 2 days, adult unfed cat fleas
Outline: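 About 20 unfed adult cat fleas feed through parafilm on cattle blood dosed with compound from a DMSO stock. Blood chamber at 37° C, fleas at room temperature. Percent mortality scored after 2 days.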

[4] = test system: Anopheles funestus strain FUMOZ-R; experiment: Anopheles funestus test (ANPHFU surface treatment & contact assay); settings: 24 hours after contact, read-out: efficacy (mortality); for mortality at 4 mg/m2: surface concentration 4 mg/m^2, exposure 30 minutes; for mortality at 20 mg/m2: surface concentration 20 mg/m^2, exposure 30 minutes
Description: Anopheles funestus Test (ANPHFU Surface Treatment & Contact Assay)
(§2) Solvent: Aceton+2000 ppm rapeseed oil methyl ester (RME)
(§3) In order to produce a sufficient, active ingredient containing solution it is necessary to solve the test compound in the solvent-mix (acetone at 2 mg/ml/RME 2000 ppm). This solution is pipetted onto a glazed tile and after evaporation of the acetone, adult mosquitoes of the species Anopheles funestus strain FUMOZ-R (Hunt et al., Med. Vet. Entomol. 2005 September; 19(3): 271-275) are placed onto the dried surface. The exposure time is 30 minutes.
(§4) Mortality in percent (%) is determined 24 hours after contact of the insects to the treated surface. 100% mortality means that all tested insects are dead, whereas 0% means that no insect died.

Boophilus microplus = Boophilus microplus injection test; settings: Rhipicephalus microplus, 168 h; 20 μg/animal injected into the abdomen; adult engorged female ticks; egg deposition after 7 days; read-out: efficacy (infertile eggs)
Outline: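 Five engorged adult female ticks received a 1 μl abdominal injection of compound in DMSO. They were then held in a climate chamber, with egg deposition checked after 7 days. Unclear eggs were kept until hatching at about 42 days, and efficacy was scored as the percentage of infertile eggs.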

[5] = test system: Aedes aegypti strain MONHEIM; experiment: Aedes aegypti test (AEDSAE surface treatment & contact assay); settings: 24 hours after contact, read-out: efficacy (mortality); for mortality at 20 mg/m2: surface concentration 20 mg/m^2, exposure 30 minutes
Description: Aedes Aegypti Test (AEDSAE Surface Treatment & Contact Assay)
as §2
as §3, with “Aedes aegypti” for “Anopheles funestus”, “MONHEIM” for “FUMOZ-R (Hunt et al., Med. Vet. Entomol. 2005 September; 19(3): 271-275)”
as §4

[6] = test system: Culex quinquefasciatus strain P00; experiment: Culex quinquefasciatus test (CULXFA surface treatment & contact assay); settings: surface concentration 20 mg/m^2, exposure 30 minutes, 24 hours after contact, read-out: efficacy (mortality)
Description: Culex Quinquefasciatus Test (CULXFA Surface Treatment & Contact Assay)
as §2
as §3, with “Culex quinquefasciatus” for “Anopheles funestus”, “P00” for “FUMOZ-R (Hunt et al., Med. Vet. Entomol. 2005 September; 19(3): 271-275)”
as §4

Myzus persicae [7] = experiment: Myzus persicae spray test; settings: foliar, 120 h, after 5 days, Chinese cabbage leaf disks
Description: Myzus persicae—Spray Test
To produce a suitable preparation of active compound, 1 part by weight of active compound is mixed with the stated amount of solvents and is diluted with water, containing an emulsifier concentration of 1000 ppm, to the desired concentration. Further test concentrations are prepared by dilution with emulsifier containing water.
Chinese cabbage (Brassica pekinensis) leaf disks infected with all instars of the green peach aphid (Myzus persicae), are sprayed with a preparation of the active ingredient of the desired concentration.
as §1

| Compound | mortality at 500 g/ha (Nezara viridula) [%] | pest or weed control at 80 µg/disc, 250 g/ha (Diabrotica balteata) [%] | pest or weed control at 160 µg/disc, 500 g/ha (Diabrotica balteata) [%] | pest or weed control at 5 µg/cm2 (Ctenocephalides felis [1]) [%] | mortality at 100 g/ha (Spodoptera frugiperda) [%] | mortality at 500 g/ha (Spodoptera frugiperda) [%] | mortality at 100 g/ha (Nezara viridula) [%] | mortality at 4 ppm (Myzus persicae [2]) [%] | mortality at 100 ppm (Ctenocephalides felis [3]) [%] | mortality at 4 mg/m2 [4] [%] | mortality at 20 mg/m2 [4] [%] | pest or weed control at 0.02 mg (Boophilus microplus) [%] | mortality at 20 mg/m2 [5] [%] | mortality at 20 mg/m2 [6] [%] | mortality at 4 mg/m2 ([5]; surface concentration 4 mg/m^2, exposure 30 minutes) [%] | mortality at 500 g/ha (Myzus persicae [7]) [%] | mortality at 100 g/ha (Myzus persicae [7]) [%] |
| --- | --- | --- | --- | --- | --- | --- | --- | --- | --- | --- | --- | --- | --- | --- | --- | --- | --- |
| C[C@H](NC(=O)c1cc(Cl)cc(C(F)(F)F)c1)c1ncnn1-c1nccs1 [Example I-082, 3-chloro-N-{(1S)-1-[1-(1,3-thiazol-2-yl)-1H-1,2,4-triazol-5-yl]ethyl}-5-(trifluoromethyl)benzamide] | 100 | 100 | 100 | 90 | 100 | 100 |  |  |  |  |  |  |  |  |  |  |  |
| C[C@H](NC(=O)c1cc(Br)cc(C(F)(F)F)c1)c1ncnn1-c1ccc(C#N)cn1 [Example I-081] | 100 | 100 | 100 | 90 | 100 | 100 | 90 | 100 |  |  |  |  |  |  |  |  |  |
| COc1cc(Cl)cc(C(=O)N[C@@H](C)c2ncnn2-c2ccc(C#N)cn2)c1 [Example I-079] | 90 | 100 |  | 90 |  | 100 | 90 |  | 100 |  |  |  |  |  |  |  |  |
| CC[C@H](NC(=O)c1cc(Cl)cc(OC(F)(F)F)c1)c1ncnn1-c1ccc([N+](=O)[O-])cn1 [Example I-071] |  |  |  | 80 |  |  |  |  |  |  |  |  |  |  |  |  |  |
| C[C@H](NC(=O)c1cc(Cl)cc(C(F)(F)F)c1)c1ncnn1-c1ccc(SC(F)(F)F)cn1 [Example I-026, 3-chloro-5-(trifluoromethyl)-N-[(1S)-1-(1-{5-[(trifluoromethyl)sulfanyl]pyridin-2-yl}-1H-1,2,4-triazol-5-yl)ethyl]benzamide] |  | 100 | 100 |  | 100 | 100 |  |  | 100 | 85 to 100 | 90 to 100 | 100 | 90 to 100 | 90 to 100 |  |  |  |
| C[C@H](NC(=O)c1cc(Cl)cc(C(F)(F)F)c1)c1ncnn1-c1ncc(C(F)(F)F)s1 [Example I-085] | 100 | 100 | 100 | 100 | 100 | 100 |  |  | 100 |  |  |  |  |  |  |  |  |
| CNC(=O)c1ccc(-n2ncnc2[C@H](C)NC(=O)c2cc(Cl)cc(C(F)(F)F)c2)nc1 [Example I-038, 6-(5-{(1S)-1-[3-chloro-5-(trifluoromethyl)benzamido]ethyl}-1H-1,2,4-triazol-1-yl)-N-methylnicotinamide] |  | 100 | 100 |  | 100 | 100 |  | 100 |  | 85 to 100 | 90 to 100 |  | 90 to 100 | 90 to 100 | 90 to 100 | 90 |  |
| C[C@H](NC(=O)c1cc(Cl)cc(OC(F)(F)F)c1)c1ncnn1-c1ccc([N+](=O)[O-])cn1 [Example I-089] | 100 | 100 | 100 | 100 | 100 | 100 | 90 | 90 | 100 |  |  |  |  |  |  | 90 | 90 |
| C[C@H](NC(=O)c1cc(C(F)(F)F)cc(C(F)(F)F)c1)c1ncnn1-c1ncc(Cl)cc1F [Example I-088] | 100 | 100 | 100 | 100 | 100 | 100 | 90 |  | 100 |  |  |  |  |  |  | 90 |  |
| C[C@H](NC(=O)c1cc(Cl)cc(C(F)(F)F)c1)c1ncnn1-c1ncc(Br)s1 [Example I-083, N-{(1S)-1-[1-(5-bromo-1,3-thiazol-2-yl)-1H-1,2,4-triazol-5-yl]ethyl}-3-chloro-5-(trifluoromethyl)benzamide] |  | 100 | 100 | 90 | 100 | 100 |  |  | 100 |  |  |  |  |  |  |  |  |
| C[C@H](NC(=O)c1cc(Cl)cc(C(F)(F)F)c1)c1ncnn1-c1ccc(C(=O)NC2CC2)cn1 [Example I-061] | 100 | 100 | 100 | 100 | 100 | 100 |  | 100 | 100 |  |  | 100 |  |  |  |  |  |
| C[C@H](NC(=O)c1cc(Cl)cc(C(F)(F)F)c1)c1ncnn1C1CCS(=O)(=O)C1 (single isomer, unassigned) [Example I-024] |  | 100 | 100 |  |  |  |  | 100 | 100 |  | 90 to 100 | 100 |  | 90 to 100 |  |  | 90 |
